Laboratory results published in US20170363612A1, “COMPOSITIONS AND METHODS RELATING TO PROLIFERATIVE DISORDERS” (Wayne State University, priority 2014, published 2017).
Where “and” joins values, the source holds several entries; their conditions need not be identical. Identical values can stand only once. Like-named read-outs stand apart in the source and are kept apart here.

Legend:
[1] = target: T1, topoisomerase I (Homo sapiens, UniProt P11387); details: cited from earlier work
T1 sequence (P11387 1-765): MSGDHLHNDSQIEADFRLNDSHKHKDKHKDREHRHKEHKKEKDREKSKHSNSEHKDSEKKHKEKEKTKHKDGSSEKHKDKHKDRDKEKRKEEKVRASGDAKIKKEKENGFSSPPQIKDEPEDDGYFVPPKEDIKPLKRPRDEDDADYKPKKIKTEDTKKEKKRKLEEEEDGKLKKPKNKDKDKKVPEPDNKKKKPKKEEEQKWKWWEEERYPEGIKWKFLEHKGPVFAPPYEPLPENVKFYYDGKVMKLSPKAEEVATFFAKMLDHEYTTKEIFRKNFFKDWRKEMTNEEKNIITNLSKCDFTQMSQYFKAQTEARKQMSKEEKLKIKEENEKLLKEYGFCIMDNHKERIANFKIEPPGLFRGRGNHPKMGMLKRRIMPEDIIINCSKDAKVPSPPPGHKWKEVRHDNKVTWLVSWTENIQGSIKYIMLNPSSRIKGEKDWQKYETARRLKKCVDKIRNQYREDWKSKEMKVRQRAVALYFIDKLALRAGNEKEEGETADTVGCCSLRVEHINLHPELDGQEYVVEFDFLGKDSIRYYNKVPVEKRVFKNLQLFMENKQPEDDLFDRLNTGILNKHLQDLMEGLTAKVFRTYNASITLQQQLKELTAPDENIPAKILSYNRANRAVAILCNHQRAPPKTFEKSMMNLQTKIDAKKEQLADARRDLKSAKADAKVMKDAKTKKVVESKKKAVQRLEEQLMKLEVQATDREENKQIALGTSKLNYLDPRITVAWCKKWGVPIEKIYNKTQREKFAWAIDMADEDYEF

[2] = test system: SET Ribosome; assay: TR SET Assay (TPA Reference Standard) on HCT116 TR Cell Panel before and after nonadherent tumorsphere growth; type: cell-based, human; design: concentration or dose not given beside the values; details: for SET Activity (day 0): TPA Reference Standard; for SET Activity (post-growth): TPA, after 32 days tumorsphere growth and 14 days replating
[3] = test system: SET Ribosome; assay: CremophorEL Cell Count Dose Response Assay, HEK293 TR cell lines; type: cell-based, human; details: HEK293 mTRdm-fLUC#12; 100 nM TPA
[4] = test system: SET Ribosome
[5] = test system: SET Ribosome; assay: Topotecan dose response assay, MCF7 TR Cell Panel; type: cell-based, human
[6] = test system: SET Ribosome; assay: Topotecan Modifier Assay on TPA Reference Standard response, HEK293 TR cell lines; type: cell-based, human; details: HEK293 hTRdm-fLUC#13 and mTRdm-fLUC#45; with 100 nM TPA; 6 hours
[7] = in vivo, po; cited from earlier work
[8] = cited from earlier work
[9] = LD50 in mice (quoted); details: oral 0.000054 mg/kg/day vs mouse LD50
[10] = test system: SET Ribosome; assay: TPA Reference Standard Response Modifier Assay with ribosome binding translation inhibitors, HEK293 hTRdm-fLUC#13; type: cell-based, human; details: with 100 nM TPA, 6 hours
[11] = cited from earlier work; remark: listed apart in the source
[12] = LD50 in rats (quoted); details: oral 0.00013 mg/kg/day
[13] = test system: PKC; details: cited from earlier work

CCc1c2c(nc3ccc(O)cc13)-c1cc3c(c(=O)n1C2)COC(=O)[C@]3(O)CC [SN-38, 7-ethyl-10-hydroxy-camptothecin]
potency relative to irinotecan [1]: 1000 X

CCCCCCCCCCCCCC(=O)O[C@@H]1[C@@H](C)[C@@]2(O)[C@@H](C=C(CO)C[C@]3(O)C(=O)C(C)=C[C@@H]23)[C@@H]2C(C)(C)[C@]12OC(C)=O [TPA, 12-O-tetradecanoylphorbol-13-acetate]
SET Activity (day 0) ([2]; HCT116 mTRdm-fLUC#17): 226.3%
SET Activity (post-growth) ([2]; HCT116 mTRdm-fLUC#17): 366.0%
SET Activity (day 0) ([2]; HCT116 mTRdm-fLUC#25): 336.6%
SET Activity (post-growth) ([2]; HCT116 mTRdm-fLUC#25): 26,675.6%
SET Activity (day 0) ([2]; HCT116 mTRdm-fLUC#28): 1,365.5%
SET Activity (post-growth) ([2]; HCT116 mTRdm-fLUC#28): 20,492.8%
SET Activity (day 0) ([2]; HCT116 mTRdm-fLUC#36): 875.3%
SET Activity (post-growth) ([2]; HCT116 mTRdm-fLUC#36): 3,926.9%
SET Activity (day 0) ([2]; HCT116 mTRdm-fLUC#47): 237.5%
SET Activity (post-growth) ([2]; HCT116 mTRdm-fLUC#47): 1,434.3%
SET Activity (day 0) ([2]; HCT116 mTRdm-fLUC#49): 329.4%
SET Activity (post-growth) ([2]; HCT116 mTRdm-fLUC#49): 2,015.4%
SET Activity (day 0) ([2]; HCT116 mTRdm-fLUC#52): 261.1%
SET Activity (post-growth) ([2]; HCT116 mTRdm-fLUC#52): 920.0%
SET Activity (day 0) ([2]; HCT116 mTRdm-fLUC#58): 324.4%
SET Activity (post-growth) ([2]; HCT116 mTRdm-fLUC#58): 636.6%
SET Activity (day 0) ([2]; HCT116 mTRdm-fLUC#75): 693.1%
SET Activity (post-growth) ([2]; HCT116 mTRdm-fLUC#75): 19,413.0%
SET Activity (day 0) ([2]; HCT116 mTRdm-fLUC#139): 114.8%
SET Activity (post-growth) ([2]; HCT116 mTRdm-fLUC#139): 311.9%
SET Activity (day 0) ([2]; HCT116 mTRdm-fLUC#156): 462.3%
SET Activity (post-growth) ([2]; HCT116 mTRdm-fLUC#156): 3,673.3%
SET Activity (day 0) ([2]; HCT116 mTRdm-fLUC#190): 204.4%
SET Activity (post-growth) ([2]; HCT116 mTRdm-fLUC#190): 178.3%
SET Activity (day 0) ([2]; HCT116 mTRdm-fLUC#220): 115.5%
SET Activity (post-growth) ([2]; HCT116 mTRdm-fLUC#220): 81.8%
SET increase [3]: > 2000%
SET Response [4]: Agonist

CC[C@@]1(O)C(=O)OCc2c1cc1n(c2=O)Cc2cc3c(CN(C)C)c(O)ccc3nc2-1.Cl [Topotecan, (S)-10-[(dimethylamino)methyl]-4-ethyl-4,9-dihydroxy-1H-pyrano[3′,4′:6,7]indolizino[1,2-b]quinoline-3,14(4H,12H)-dione monohydrochloride]
IC100 ([5]; MCF7 TR Cell Panel): > 5 µM
dose of maximal SET response ([5]; MCF7 TR Cell Panel): 10 nM
dose range of SET Agonist activity ([5]; MCF7 TR Cell Panel): 2 to 100 nM
concentrations giving complete SET Ribosome block ([5]; MCF7 TR Class 3 and Class 4 lines, 6 hours): ≥ 5 µM
doses completely blocking SET Ribosome activity [6]: > 5 µM
SET Response ([4]; High dose (HD) 10 uM): Antagonist
SET Response ([4]; Low dose (LD): Calon 1 uM, Topotecan 100 nM): Agonist
oral bioavailability [7]: ~40%
time of peak plasma concentration post-administration [7]: 1 to 2 h

COc1ccc(C[C@H]2NC[C@H](O)[C@H]2OC(C)=O)cc1 [anisomycin, (2R,3S,4S)-4-hydroxy-2-(4-methoxybenzyl)-pyrrolidin-3-yl acetate]
LD50 ([8]; route not stated): 75 to 200 mg/kg
factor by which the IC100 dose is lower than a toxic concentration [9]: > 14,000 ×

CC[C@H]1CN2CCc3cc(OC)c(OC)cc3[C@@H]2C[C@@H]1C[C@H]1NCCc2cc(OC)c(OC)cc21 [emetine, (2S, 3R, 11bS)-2-{{(1R)-6,7-dimethoxy-1,2,3,4-tetrahydroisoquinolin-1-yl]methyl}-3-ethyl-9,10-dimethoxy-2,3,4,6,7,11b-hexahydro-1H-pyrido[2,1-a] isoquinoline]
IC50 ([10]; Homo sapiens, HEK293, read-out: IC50, SET ribosome inhibition): 0.175 µM
IC100 (100% SET Ribosome inhibition) [10]: 2.5 µM and 2.5 to 10 µM
LD50 ([8]; subcutaneous): 58 µM
LD50 ([11]; intravenous): 5 µM
LD50 ([11]; oral): 35 µM
factor by which the IC100 dose is lower than the rat LD50 [12]: > 5,231 ×

Bryostatin 2
enzyme binding constant relative to bryostatin 1 [13]: 10 times
